The text below walks through data of patent US6143311A, “Iodopropargyl derivatives and antimicrobial agents comprising them as an active ingredient” (Nagase & Company, Ltd., priority 1997, dated 2000).

≈ marks a conversion by molar mass, not a printed value.

The test system of series [1] is Bacillus subtillis. Nature of the series: MIC against bacteria, Bacillus subtillis (nutrient broth, turbidity). Conditions: 30° C., 24 hours, read-out: Antimicrobial activity (MIC), Bacteria D: Bacillus subtillis. It counts as cell-based. How it is done:
(§1) The minimum inhibitory concentration (hereinafter abbreviated as MIC) against four bacteria (Enterobacter aerogenes, Eschericia coli, Pseudomonas aeruginosa and Bacillus subtillis) and four fungi (Aspergillusniger, Penicillium funiculosum, Gliocladium virens and Trichoderma viride) was measured and used as an indicator of the antimicrobial activity.
(§2) The MIC against bacteria was measured as follows. The test bacteria were cultivated by inoculating a nutrient broth with them and keeping the mixture at 37° C. for 6 hours. On the other hand, the test media were prepared by adding solutions (0.2 ml) of an iodopropargyl derivative in dimethylformamide (DMF) at varying concentrations to the nutrient broth (10 ml). The above bacterial culture (0.1 ml) was added to the test media and the mixtures were cultivated at 30° C. for 24 hours. Then, the presence or absence of microorganism growth was assessed by observing the turbidity of media, by which the MIC was determined.

Series [2] concerns Gliocladium virens. Nature of the series: MIC against fungi, Gliocladium virens (PDA medium). In kind it is cell-based. Conditions: Trichoderma virens, 336 h; 28° C., 2 weeks; read-out: Antimicrobial activity (MIC), Fungi G: Gliocladium virens. How it is done: as §1
(§3) The MIC against fungi was measured as follows. The test fungal spores were suspended in sterilized water supplemented with a wetting agent. On the other hand, test media were prepared by adding solutions (0.3 ml) of an iodopropargyl derivative in dimethylformamide (DMF) at varying concentrations to a potato-dextrose-agar (PDA) medium (15 ml). The above spore suspensions (1 ml) were spread over the test media and the media were cultivated at 28° C. for 2 weeks. The presence or absence of fungal growth on the media was then observed to determine the MIC.

The test system of series [3] is Aspergillus niger. Nature of the series: MIC against fungi, Aspergillus niger (PDA medium). The conditions noted are these: 336 h, 28° C., 2 weeks, read-out: Antimicrobial activity (MIC), Fungi E: Aspergillus niger. In kind it is cell-based. How it is done: as §1, §3
Series [4] relates to Penicillium funiculosum. Nature of the series: MIC against fungi, Penicillium funiculosum (PDA medium). In kind it is cell-based. The conditions noted are these: Talaromyces funiculosus, 336 h; 28° C., 2 weeks; read-out: Antimicrobial activity (MIC), Fungi F: Penicillium funiculosum. How it is done: as §1, §3
The test system of series [5] is Enterobacter aerogenes. Nature of the series: MIC against bacteria, Enterobacter aerogenes (nutrient broth, turbidity). The conditions noted are these: Klebsiella aerogenes; 30° C., 24 hours; read-out: Antimicrobial activity (MIC), Bacteria A: Enterobacter aerogenes. In kind it is cell-based. How it is done: as §1, §2
Series [6] relates to Eschericia coli. Nature of the series: MIC against bacteria, Eschericia coli (nutrient broth, turbidity). Conditions: 30° C., 24 hours; read-out: Antimicrobial activity (MIC), Bacteria B: Eschericia coli. It counts as cell-based. How it is done:
as §1, §2

Series [7] concerns Pseudomonas aeruginosa. Nature of the series: MIC against bacteria, Pseudomonas aeruginosa (nutrient broth, turbidity). The conditions noted are these: 30° C., 24 hours, read-out: Antimicrobial activity (MIC), Bacteria C: Pseudomonas aeruginosa. In kind it is cell-based. How it is done: as §1, §2
The test system of series [8] is Trichoderma viride. Nature of the series: MIC against fungi, Trichoderma viride (PDA medium). In kind it is cell-based. The conditions noted are these: 336 h, 28° C., 2 weeks, read-out: Antimicrobial activity (MIC), Fungi H: Trichoderma viride. How it is done:
as §1, §3

The subject of series [9] is four bacteria and four fungi. Nature of the series: Antimicrobial activity (MIC) against four bacteria and four fungi, overall. In kind it is cell-based. Conditions: from results of Table 1. How it is done:
as §1, §2, §3

In series [10] the test system is mold. Conditions: background art; cited from earlier work.
Series [11] relates to human body. Conditions: background art; cited from earlier work.

For the compound `COc1ccccc1OCOCC#CI` [Derivative III-c, 1-[[(3-Iodo-2-propynyl)oxy]methoxy]-2-methoxybenzene], the MIC in series [1] was 200 to 400 µg/mL (≈ 629 to 1260 µM); in series [2], > 20 µg/mL; in [3] it was 10 to 20 µg/mL (≈ 31.4 to 62.9 µM); in series [4], > 20 µg/mL; in series [5] it was > 1000 µg/mL; in [6], > 1000 µg/mL. The MIC in series [7] was > 1000 µg/mL; in series [8] it was 10 to 20 µg/mL (≈ 31.4 to 62.9 µM).

Turning to `CCOc1ccccc1OCOCC#CI` [Derivative III-d, 1-Ethoxy-2-[[(3-iodo-2-propynyl)oxy]methoxy]benzene], the MIC in series [1] is 20 to 40 µg/mL (≈ 60.2 to 120 µM); in [2], 4 to 10 µg/mL (≈ 12 to 30.1 µM); in [3] it was 1 to 2 µg/mL (≈ 3.01 to 6.02 µM); in series [4], 4 to 10 µg/mL (≈ 12 to 30.1 µM); in [5] it was > 1000 µg/mL; in [6], > 1000 µg/mL. Moreover, the results for the MIC in [7] and in [8] were > 1000 µg/mL and 1 to 2 µg/mL (≈ 3.01 to 6.02 µM), respectively.

On to `CCOc1ccccc1OC(C)OCC#CI` (stereo not drawn) [Derivative III-h, 1-Ethoxy-2-[1-[(3-iodo-2-propynyl)oxy]ethoxy]benzene], for which the MIC in [1] is 20 to 40 µg/mL (≈ 57.8 to 116 µM); in series [2], 4 to 10 µg/mL (≈ 11.6 to 28.9 µM); in series [3], 2 to 4 µg/mL (≈ 5.78 to 11.6 µM); in series [4] it was 2 to 4 µg/mL (≈ 5.78 to 11.6 µM); in [5], > 1000 µg/mL; in series [6] it was > 1000 µg/mL. Moreover, the MIC is > 1000 µg/mL in series [7] and 2 to 4 µg/mL (≈ 5.78 to 11.6 µM) in series [8].

Turning to `COc1ccccc1OC(C)OCC#CI` (stereo not drawn) [Derivative III-g, 1-[1-[(3-Iodo-2-propynyl)oxy]ethoxy]-2-methoxybenzene], the MIC in series [1] is 20 to 40 µg/mL (≈ 60.2 to 120 µM); in series [2], 4 to 10 µg/mL (≈ 12 to 30.1 µM); in [3], 1 to 2 µg/mL (≈ 3.01 to 6.02 µM); in series [4], 2 to 4 µg/mL (≈ 6.02 to 12 µM); in [5], > 1000 µg/mL; in series [6] it was > 1000 µg/mL. Further, the MIC in series [7] is > 1000 µg/mL; in series [8], 2 to 4 µg/mL (≈ 6.02 to 12 µM).

Regarding `N#Cc1ccc(OCOCC#CI)cc1` [Derivative III-i, 1-Cyano-4-[[(3-iodo-2-propynyl)oxy]methoxy]benzene], the MIC in series [1] is 20 to 40 µg/mL (≈ 63.9 to 128 µM); in series [2], 0.4 to 1 µg/mL (≈ 1.28 to 3.19 µM); in series [3], 1 to 2 µg/mL (≈ 3.19 to 6.39 µM); in series [4] it was 0.4 to 1 µg/mL (≈ 1.28 to 3.19 µM); in series [5] it was > 1000 µg/mL; in series [6] it was > 1000 µg/mL. The MIC in series [7] was > 1000 µg/mL; in series [8], 0.4 to 1 µg/mL (≈ 1.28 to 3.19 µM). Besides, the “antimicrobial activity compared with control 1-chloro-4-[[(3-iodo-2-propynyl)oxy]methoxy]benzene” value in [9] was “show an antimicrobial activity similar to that of 1-chloro-4-[[(3-iodo-2-propynyl)oxy]methoxy]benzene”. Further, the “antimicrobial activity compared with the other derivatives” value in series [9] is “superior to the others in the antimicrobial activity”.

In the case of `COc1ccc(OCOCC#CI)cc1` [Derivative III-a, 1-[[(3-Iodo-2-propynyl)oxy]methoxy]-4-methoxybenzene], the MIC in series [1] was 10 to 20 µg/mL (≈ 31.4 to 62.9 µM); in series [2], 2 to 4 µg/mL (≈ 6.29 to 12.6 µM); in [3], 0.4 to 1 µg/mL (≈ 1.26 to 3.14 µM); in [4], 2 to 4 µg/mL (≈ 6.29 to 12.6 µM); in series [5], > 1000 µg/mL; in [6], > 1000 µg/mL. Further, the MIC in series [7] was > 1000 µg/mL; in series [8], 0.4 to 1 µg/mL (≈ 1.26 to 3.14 µM). Also, in series [9], the “antimicrobial activity compared with control 1-chloro-4-[[(3-iodo-2-propynyl)oxy]methoxy]benzene” value was “show an antimicrobial activity similar to that of 1-chloro-4-[[(3-iodo-2-propynyl)oxy]methoxy]benzene”. For the same compound, in series [9], the “antimicrobial activity compared with the other derivatives” value is listed as “superior to the others in the antimicrobial activity”.

`CCOc1ccc(OC(C)OCC#CI)cc1` (stereo not drawn) [Derivative III-f, 1-Ethoxy-4-[1-[(3-Iodo-2-propynyl)oxy]ethoxy]benzene]: the MIC was 10 to 20 µg/mL (≈ 28.9 to 57.8 µM) in [1]; 4 to 10 µg/mL (≈ 11.6 to 28.9 µM) in [2]; 1 to 2 µg/mL (≈ 2.89 to 5.78 µM) in series [3]; 4 to 10 µg/mL (≈ 11.6 to 28.9 µM) in [4]; > 1000 µg/mL in series [5]; 400 to 1000 µg/mL (≈ 1160 to 2890 µM) in series [6]. The MIC was > 1000 µg/mL in [7] and 1 to 2 µg/mL (≈ 2.89 to 5.78 µM) in series [8].

Regarding `Clc1ccc(OCOCC#CI)cc1` [IF-1000, 1-Chloro-4-[[(3-iodo-2-propynyl)oxy]methoxy]benzene, reference compound], the “antimicrobial activity against mold” value in series [10] is given as “particularly high antimicrobial activity against mold”. Also, the MIC in series [1] is 10 to 20 µg/mL (≈ 31 to 62 µM); in series [2] it was 1 to 2 µg/mL (≈ 3.1 to 6.2 µM); in [3], 0.4 to 1 µg/mL (≈ 1.24 to 3.1 µM); in series [4], 0.4 to 1 µg/mL (≈ 1.24 to 3.1 µM); in [5] it was > 1000 µg/mL; in series [6], 100 to 200 µg/mL (≈ 310 to 620 µM). Besides, the MIC in series [7] was > 1000 µg/mL; in series [8] it was 1 to 2 µg/mL (≈ 3.1 to 6.2 µM). In [11], the “toxicity against the human body” value was “low toxicity against the human body”.

As for `COc1ccc(OC(C)OCC#CI)cc1` (stereo not drawn) [Derivative III-e, 1-[1-[(3-Iodo-2-propynyl)oxy]ethoxy]-4-methoxybenzene], the MIC was 20 to 40 µg/mL (≈ 60.2 to 120 µM) in series [1]; 4 to 10 µg/mL (≈ 12 to 30.1 µM) in series [2]; 0.4 to 1 µg/mL (≈ 1.2 to 3.01 µM) in [3]; 2 to 4 µg/mL (≈ 6.02 to 12 µM) in [4]; > 1000 µg/mL in [5]; > 1000 µg/mL in series [6]. The results for the MIC in series [7] and in [8] were > 1000 µg/mL and 1 to 2 µg/mL (≈ 3.01 to 6.02 µM), respectively. Further, the “antimicrobial activity compared with the other derivatives” value in series [9] is on record as “superior to the others in the antimicrobial activity”.

As to `CCOc1ccc(OCOCC#CI)cc1` [Derivative III-b, 1-Ethoxy-4-[[(3-iodo-2-propynyl)oxy]methoxy]benzene], the MIC in series [1] was 100 to 200 µg/mL (≈ 301 to 602 µM); in series [2] it was > 20 µg/mL; in [3] it was 4 to 10 µg/mL (≈ 12 to 30.1 µM); in series [4], > 20 µg/mL; in series [5] it was > 1000 µg/mL; in series [6] it was > 1000 µg/mL. The MIC in series [7] is > 1000 µg/mL; in series [8], 4 to 10 µg/mL (≈ 12 to 30.1 µM).
